Test results reported in patent US9527859B2, “Amidopyridine derivative and use thereof” (Mitsubishi Tanabe Pharma Corporation, priority 2012, dated 2016).

Assay: Single dose toxicity study in dogs
Assay type: in vivo, dog
Settings: beagle dogs, single oral dose 10, 30, 100 mg/kg
Description: Single Dose Toxicity Study in Dogs
The study was carried out with TOYO beagles (KITAYAMA LABES CO., LTD., Hongou farm), four dogs per each sex. They were 5-month old on arrival at testing facility, and were 10-month old when started to be administered. Basal diet was 300 g/day, DS-A (Oriental Yeast Co., Ltd.), and drinking water was tap water. Allocation to the groups was carried out so that an animal number was allocated in order of quarantine number for males and females respectively whose clinical signs and results of clinical laboratory test were considered to be normal.
As to a dosing suspension, 0.5 w/v % HPMC aqueous solution was used as a vehicle, the required amounts of test compound were pre-weighed for each dose group, and it was prepared in a specified concentration with mortar and pestleon the day of administration. Dose volume was 5 mL/kg (calculated on the basis of body weight measured on the day of administration). […]
A clinical sign was observed before administration and during TK blood sampling on the day of administration, and once in the morning every day on the day other than administration. Body weight was measured in the pre-dosing term (−5th day, −1st day), on the day of administration and on the next day after administration.
Feeding was carried out every day, and food consumption (g/day) was calculated from the remaining food in the next morning after feeding. […]

Cc1c(C(=O)Nc2cnc(N3CCC(O)CC3)c(C3CC3)c2)cnn1-c1ccc(Cl)cc1 [Example 39, 1-(4-chlorophenyl)-N-[5-cyclopropyl-6-(4-hydroxypiperidin-1-yl)pyridin-3-yl]-5-methyl-1H-pyrazole-4-carboxamide]
Changes caused by administration (clinical signs, body weight, food consumption, hematology, blood chemistry incl. ALT, AST, TBil): no changes caused by administration were found in any doses
